Data: patent US12655116B2, “Substituted isophthalic acid diamides” (Bayer Aktiengesellschaft, priority 2020, dated 2026)

What was measured:
VERPE [1] = assay: Pre-emergence herbicidal action against VERPE; type: in vivo, Veronica persica; details: Veronica persica, 504 h; for pest or weed control at 80 g/ha: dosage 80 g/ha
Method in brief: (§1)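 Seeds sown in sandy loam, soil-covered; compound sprayed on soil surface pre-emergence. Application: WP/EC, 600–800 l/ha, 0.2% wetting agent. Readout: visual % damage at 3 weeks.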

AVEFA [2] = assay: Pre-emergence herbicidal action against AVEFA; type: in vivo, Avena fatua; details: Avena fatua, 504 h; 80 g/ha, pre-emergence
Method in brief: as §1

SETVI [3] = assay: Pre-emergence herbicidal action against SETVI; type: in vivo, Setaria viridis; details: Setaria viridis, 504 h; for pest or weed control at 20 g/ha: dosage 20 g/ha; for pest or weed control at 80 g/ha: dosage 80 g/ha
Method in brief: as §1

LOLRI [4] = assay: Pre-emergence herbicidal action against LOLRI; type: in vivo, Lolium rigidum; details: Lolium rigidum, 504 h, 80 g/ha
Method in brief: as §1

DIGSA [5] = assay: Post-emergence herbicidal action against DIGSA; type: in vivo, Digitaria sanguinalis; details: Digitaria sanguinalis, 504 h
Method in brief: (§2)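 Sandy loam, greenhouse; treatment 2–3 weeks after sowing, one-leaf stage. Aqueous suspension or emulsion from WP/EC sprayed on foliage (600–800 l/ha, 0.2% wetting agent). Readout: visual % action, ~3 weeks.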

ABUTH [6] = assay: Post-emergence herbicidal action against ABUTH; type: in vivo, Abutilon theophrasti; details: Abutilon theophrasti, 504 h, visual assessment about 3 weeks after treatment vs untreated controls; for pest or weed control at 20 g/ha: dosage 20 g/ha
Method in brief: as §2

POLCO = assay: Post-emergence herbicidal action against POLCO; type: in vivo, Polygonum convolvulus; details: Fallopia convolvulus, 504 h, dosage 20 g/ha
Method in brief: as §2

VERPE [7] = assay: Post-emergence herbicidal action against VERPE; type: in vivo, Veronica persica; details: Veronica persica, 504 h, 20 g/ha
Method in brief: as §2

PHBPU [8] = assay: Pre-emergence herbicidal action against PHBPU; type: in vivo, Pharbitis purpurea; details: Ipomoea purpurea, 504 h, dosage 80 g/ha
Method in brief: as §1

HORMU [9] = assay: Post-emergence herbicidal action against HORMU; type: in vivo, Hordeum murinum; details: Hordeum murinum, 504 h, dosage 20 g/ha
Method in brief: as §2

PHBPU [10] = assay: Post-emergence herbicidal action against PHBPU; type: in vivo, Pharbitis purpurea; details: Ipomoea purpurea, 504 h, dosage 20 g/ha
Method in brief: as §2

AMARE [11] = assay: Post-emergence herbicidal action against AMARE; type: in vivo, Amaranthus retroflexus; details: Amaranthus retroflexus, 504 h, 20 g/ha, visual assessment about 3 weeks after treatment, 100% = plants have died, 0% = like control plants
Method in brief: as §2

DIGSA [12] = assay: Pre-emergence herbicidal action against DIGSA; type: in vivo, Digitaria sanguinalis; details: Digitaria sanguinalis, 504 h
Method in brief: as §1

VIOTR [13] = assay: Post-emergence herbicidal action against VIOTR; type: in vivo, Viola tricolor; details: Viola tricolor, 504 h
Method in brief: as §2

AVEFA [14] = assay: Post-emergence herbicidal action against AVEFA; type: in vivo, Avena fatua; details: Avena fatua, 504 h, 20 g/ha, visual assessment about 3 weeks after treatment, 100% = plants have died, 0% = like control plants
Method in brief: as §2

VIOTR [15] = assay: Pre-emergence herbicidal action against VIOTR; type: in vivo, Viola tricolor; details: Viola tricolor, 504 h; for pest or weed control at 20 g/ha: dosage 20 g/ha; for pest or weed control at 80 g/ha: dosage 80 g/ha
Method in brief: as §1

ECHCG [16] = assay: Pre-emergence herbicidal action against ECHCG; type: in vivo, Echinochloa crus-galli; details: Echinochloa crus-galli, 504 h, 80 g/ha
Method in brief: as §1

MATIN [17] = assay: Post-emergence herbicidal action against MATIN; type: in vivo, Matricaria inodora; details: Tripleurospermum inodorum, 504 h
Method in brief: as §2

ECHCG [18] = assay: Post-emergence herbicidal action against ECHCG; type: in vivo, Echinochloa crus-galli; details: Echinochloa crus-galli, 504 h, dosage 20 g/ha
Method in brief: as §2

ALOMY [19] = assay: Pre-emergence herbicidal action against ALOMY; type: in vivo, Alopecurus myosuroides; details: Alopecurus myosuroides, 504 h, pre-emergence; for pest or weed control at 80 g/ha: scored visually after 3 weeks vs untreated controls (100% = plants have died, 0% = like control plants)
Method in brief: as §1

STEME [20] = assay: Pre-emergence herbicidal action against STEME; type: in vivo, Stellaria media; details: Stellaria media, 504 h
Method in brief: as §1

AMARE [21] = assay: Pre-emergence herbicidal action against AMARE; type: in vivo, Amaranthus retroflexus; details: Amaranthus retroflexus, 504 h, scored visually after 3 weeks vs untreated controls, 100% = plants have died, 0% = like control plants
Method in brief: as §1

MATIN [22] = assay: Pre-emergence herbicidal action against MATIN; type: in vivo, Matricaria inodora; details: Tripleurospermum inodorum, 504 h; for pest or weed control at 80 g/ha: dosage 80 g/ha
Method in brief: as §1

ABUTH [23] = assay: Pre-emergence herbicidal action against ABUTH; type: in vivo, Abutilon theophrasti; details: Abutilon theophrasti, 504 h; for pest or weed control at 80 g/ha: scored visually after 3 weeks vs untreated controls (100% = plants have died, 0% = like control plants)
Method in brief: as §1

ALOMY [24] = assay: Post-emergence herbicidal action against ALOMY; type: in vivo, Alopecurus myosuroides; details: Alopecurus myosuroides, 504 h, visual assessment about 3 weeks after treatment vs untreated controls; for pest or weed control at 20 g/ha: dosage 20 g/ha
Method in brief: as §2

HORMU [25] = assay: Pre-emergence herbicidal action against HORMU; type: in vivo, Hordeum murinum; details: Hordeum murinum, 504 h; 80 g/ha, pre-emergence
Method in brief: as §1

SETVI [26] = assay: Post-emergence herbicidal action against SETVI; type: in vivo, Setaria viridis; details: Setaria viridis, 504 h; for pest or weed control at 20 g/ha: dosage 20 g/ha
Method in brief: as §2

STEME [27] = assay: Post-emergence herbicidal action against STEME; type: in vivo, Stellaria media; details: Stellaria media, 504 h
Method in brief: as §2

LOLRI [28] = assay: Post-emergence herbicidal action against LOLRI; type: in vivo, Lolium rigidum; details: Lolium rigidum, 504 h, dosage 20 g/ha
Procedure: Seeds of monocotyledonous and dicotyledonous weed and crop plants are laid out in sandy loam soil in wood-fiber pots, covered with soil and cultivated in a greenhouse under good growth conditions. 2 to 3 weeks after sowing, the test plants are treated at the one-leaf stage. The compounds of the invention, formulated in the form of wettable powders (WP) or as emulsion concentrates (EC), are then sprayed onto the green parts of the plants in the form of an aqueous suspension or emulsion at a water application rate equivalent to 600 to 800 l/ha, with addition of 0.2% wetting agent. After the test plants have been left to stand in the greenhouse under optimal growth conditions for about 3 weeks, the action of the preparations is assessed visually in comparison to untreated controls (herbicidal action in percent (%): 100% activity=the plants have died, 0% activity=like control plants). […] The tables below illustrate, in an illustrative manner, the post-emergence herbicidal action of the compounds of the invention, the herbicidal activity being stated in percent.

Cc1c(C(=O)Nc2nnnn2C)ccc(C(F)(F)F)c1C(=O)NC1CC1 [Example 1-27]
100%: pest or weed control at 80 g/ha (AVEFA [2]) | pest or weed control at 20 g/ha (SETVI [3]) | pest or weed control at 80 g/ha (SETVI [3]) | pest or weed control at 20 g/ha (DIGSA [5]; 20 g/ha) | pest or weed control at 5 g/ha (ABUTH [6]; dosage 5 g/ha) | pest or weed control at 20 g/ha (ABUTH [6]) | pest or weed control at 20 g/ha (VERPE [7]) | pest or weed control at 80 g/ha (PHBPU [8]) | pest or weed control at 20 g/ha (AMARE [11]) | pest or weed control at 20 g/ha (DIGSA [12]; dosage 20 g/ha) | pest or weed control at 80 g/ha (DIGSA [12]; dosage 80 g/ha) | pest or weed control at 5 g/ha (VIOTR [13]; 5 g/ha) | pest or weed control at 20 g/ha (VIOTR [13]) | pest or weed control at 20 g/ha (AVEFA [14]) | pest or weed control at 20 g/ha (VIOTR [15]) | pest or weed control at 80 g/ha (VIOTR [15]) | pest or weed control at 80 g/ha (ECHCG [16]) | pest or weed control at 20 g/ha (MATIN [17]; dosage 20 g/ha) | pest or weed control at 80 g/ha (STEME [20]; dosage 80 g/ha) | pest or weed control at 20 g/ha (AMARE [21]) | pest or weed control at 80 g/ha (AMARE [21]) | pest or weed control at 20 g/ha (MATIN [22]; dosage 20 g/ha) | pest or weed control at 80 g/ha (MATIN [22]) | pest or weed control at 80 g/ha (ABUTH [23]) | pest or weed control at 20 g/ha (ABUTH [23]; dosage 20 g/ha, scored visually after 3 weeks vs untreated controls, 100% = plants have died, 0% = like control plants, read-out: Pre-emergence action against ABUTH (herbicidal activity in percent)) | pest or weed control at 20 g/ha (ALOMY [24]) | pest or weed control at 5 g/ha (SETVI [26]; dosage 5 g/ha) | pest or weed control at 20 g/ha (SETVI [26]) | pest or weed control at 20 g/ha (STEME [27]; 20 g/ha) | pest or weed control at 5 g/ha (STEME [27]; dosage 5 g/ha)
90%: pest or weed control at 80 g/ha (VERPE [1]) | pest or weed control at 5 g/ha (DIGSA [5]; 5 g/ha) | pest or weed control at 20 g/ha (POLCO) | pest or weed control at 20 g/ha (PHBPU [10]) | pest or weed control at 80 g/ha (ALOMY [19]) | pest or weed control at 20 g/ha (STEME [20]; dosage 20 g/ha)
80%: pest or weed control at 20 g/ha (VERPE [1]; dosage 20 g/ha) | pest or weed control at 80 g/ha (LOLRI [4]) | pest or weed control at 20 g/ha (HORMU [9]) | pest or weed control at 5 g/ha (MATIN [17]; dosage 5 g/ha) | pest or weed control at 20 g/ha (ECHCG [18]) | pest or weed control at 80 g/ha (HORMU [25])

Cn1nnnc1NC(=O)c1ccc(Cl)c(C(=O)NC2CC2)c1Br [Example 1-351]
90%: pest or weed control at 80 g/ha (VERPE [1]) | pest or weed control at 5 g/ha (ALOMY [24]; dosage 5 g/ha) | pest or weed control at 20 g/ha (ALOMY [24])
80%: pest or weed control at 20 g/ha (ABUTH [6]) | pest or weed control at 20 g/ha (LOLRI [28]) | pest or weed control at 20 g/ha (VIOTR [13]) | pest or weed control at 20 g/ha (AVEFA [14])
100%: pest or weed control at 80 g/ha (AVEFA [2]) | pest or weed control at 20 g/ha (SETVI [3]) | pest or weed control at 80 g/ha (SETVI [3]) | pest or weed control at 20 g/ha (AMARE [11]) | pest or weed control at 20 g/ha (VIOTR [15]) | pest or weed control at 80 g/ha (VIOTR [15]) | pest or weed control at 80 g/ha (ECHCG [16]) | pest or weed control at 20 g/ha (ECHCG [18]) | pest or weed control at 80 g/ha (ALOMY [19]) | pest or weed control at 20 g/ha (ALOMY [19]; 20 g/ha, scored visually after 3 weeks, 100% = plants have died, 0% = like control plants) | pest or weed control at 20 g/ha (AMARE [21]) | pest or weed control at 80 g/ha (AMARE [21]) | pest or weed control at 80 g/ha (MATIN [22]) | pest or weed control at 80 g/ha (ABUTH [23]) | pest or weed control at 20 g/ha (SETVI [26])
